# Data published in patent US20180008587A1, “THIOHYDANTOIN ANDROGEN RECEPTOR ANTAGONISTS FOR THE TREATMENT OF CANCER” (Jaressen Pharmaceutica NV, priority 2016, published 2018).
# Positions count from the first letter of the chain named.
# Tests used:
# Assay type in all cases: cell-based
# [1] = target: T1, wild-type Androgen Receptor (AR-wt) (Homo sapiens, UniProt P10275); assay: LNCaP-AR-wt ANT reporter assay (ARE firefly luciferase, antagonist mode); conditions: for IC50: antagonist mode, 400 pM R-1881 challenge, −Log10(IC50 [Molar]), read-out: LNCaP-AR-wt ANT pIC50 (converted); for Emax: maximum % inhibition of R1881 control response over tested concentration range, read-out: LNCaP-AR-wt ANT MAX % Inh
# T1 construct: expressed in transfected cells; host or cells: LNCaP (LNCaP AR (cs))
# T1 sequence (P10275 1-920): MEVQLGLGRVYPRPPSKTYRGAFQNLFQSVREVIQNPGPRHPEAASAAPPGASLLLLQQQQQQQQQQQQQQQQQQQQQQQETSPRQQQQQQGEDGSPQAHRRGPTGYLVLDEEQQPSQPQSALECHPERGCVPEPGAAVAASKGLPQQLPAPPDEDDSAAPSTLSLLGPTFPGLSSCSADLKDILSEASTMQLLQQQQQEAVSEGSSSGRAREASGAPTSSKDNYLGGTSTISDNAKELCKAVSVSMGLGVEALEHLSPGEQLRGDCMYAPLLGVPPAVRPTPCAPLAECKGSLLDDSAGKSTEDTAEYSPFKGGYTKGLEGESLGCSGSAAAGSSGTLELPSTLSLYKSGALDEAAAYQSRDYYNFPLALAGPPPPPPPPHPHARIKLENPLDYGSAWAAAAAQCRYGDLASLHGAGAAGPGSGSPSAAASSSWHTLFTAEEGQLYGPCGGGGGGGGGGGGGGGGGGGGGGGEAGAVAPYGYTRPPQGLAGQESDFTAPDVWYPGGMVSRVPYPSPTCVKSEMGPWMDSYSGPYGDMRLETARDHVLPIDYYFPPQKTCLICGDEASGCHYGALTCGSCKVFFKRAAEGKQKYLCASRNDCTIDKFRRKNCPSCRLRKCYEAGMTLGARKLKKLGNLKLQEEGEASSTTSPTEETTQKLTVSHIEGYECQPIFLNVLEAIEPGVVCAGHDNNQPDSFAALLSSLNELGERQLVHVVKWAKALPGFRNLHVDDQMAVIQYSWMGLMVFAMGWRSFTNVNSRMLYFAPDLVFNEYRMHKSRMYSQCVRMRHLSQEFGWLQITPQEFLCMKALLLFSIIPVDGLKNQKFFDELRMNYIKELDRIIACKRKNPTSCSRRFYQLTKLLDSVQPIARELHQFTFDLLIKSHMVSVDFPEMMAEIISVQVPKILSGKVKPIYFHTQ
# Outline: (§1)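 Puromycin-selected pooled LNCaP populations expressing AR-wt or AR-F876L are seeded in CSS medium and treated with compound for 20-24 h at 37 °C. For antagonist testing, agonist is added at 400 pM (WT) or 600 pM (F876L). Potency values derive from least-squares fitting of luminescence RLU.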
# [2] = target: T1, wild-type Androgen Receptor (AR-wt); assay: LNCaP-AR-wt AG reporter assay (ARE firefly luciferase, agonist mode); conditions: for EC50: agonist mode, −Log10(EC50 [Molar]), read-out: LNCaP-AR-wt AG pEC50 (converted); for Emax: maximum % stimulation (agonist response) over tested concentration range, read-out: LNCaP-AR-wt AG MAX % Stim
# Outline: (§2)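 Cells: stable LNCaP pools, AR-wt or AR-F876L, in charcoal-stripped serum. Agonist challenge for antagonist mode was 400 pM (WT) and 600 pM (F876L). Luminescence was measured after 20-24 h incubation.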
# [3] = target: T2, F876L mutant Androgen Receptor (AR-F876L) (Homo sapiens, UniProt P10275, F877L); assay: LNCaP-AR-F876L ANT reporter assay (ARE firefly luciferase, antagonist mode); conditions: for Emax: maximum % inhibition of R1881 control response over tested concentration range, read-out: LNCaP-AR-F876L ANT MAX % Inh; for IC50: read-out: LNCaP-AR-F876L ANT pIC50 (converted)
# T2 construct: expressed in transfected cells; host or cells: LNCaP (LNCaP F876L)
# T2 sequence (P10275 1-920 F877L): T1 sequence (P10275 1-920) with F877L
# Outline: as §1
# [4] = target: T2, F876L mutant Androgen Receptor (AR-F876L); assay: LNCaP-AR-F876L AG reporter assay (ARE firefly luciferase, agonist mode); conditions: for EC50: agonist mode, −Log10(EC50 [Molar]), read-out: LNCaP-AR-F876L AG pEC50 (converted); for Emax: maximum % stimulation (agonist response) over tested concentration range, read-out: LNCaP-AR-F876L AG MAX % Stim
# Outline: as §2
IC50 [1] [nM],Emax [1] [%],EC50 [2] [nM],Emax [2] [%],Emax [3] [%],IC50 [3] [nM],EC50 [4] [nM],Emax [4] [%],SMILES
240,97.5,> 15100,-0.1,101,145,> 15100,0,"N#Cc1ncc(N2C(=O)C3(CCC3)N(c3ccc(OC4CCNCC4)cc3)C2=S)cc1C(F)(F)F [Cpd 35, 5-[5-oxo-8-[4-(4-piperidyloxy)phenyl]-7-thioxo-6,8-diazaspiro[3.4]octan-6-yl]-3-(trifluoromethyl)pyridine-2-carbonitrile]"
240,101,> 15100,-0.3,99.5,162,> 15100,0.2,"N#Cc1ncc(N2C(=O)C3(CCC3)N(c3ccc(C(=O)NCCCO)c(F)c3)C2=S)cc1C(F)(F)F [Cpd 40, 4-[6-[6-cyano-5-(trifluoromethyl)-3-pyridyl]-5-oxo-7-thioxo-6,8-diazaspiro[3.4]octan-8-yl]-2-fluoro-N-(3-hydroxypropyl)benzamide]"
–,101,–,0.2,99.8,–,–,0.8,"CN1CCC(Oc2ccc(N3C(=S)N(c4cnc(C#N)c(C(F)(F)F)c4)C(=O)C34CCC4)cc2)CC1 [Cpd 85, 5-[8-[4-[(1-methyl-4-piperidyl)oxy]phenyl]-5-oxo-7-thioxo-6,8-diazaspiro[3.4]octan-6-yl]-3-(trifluoromethyl)pyridine-2-carbonitrile]"
